From patent US5888998A, “2-oxo-1-azetidine sulfonic acid derivatives as potent β-lactamase inhibitors” (Synphar Laboratories, Inc., priority 1997, dated 1999)
Structures can show the parent of a compound that is named as a salt.

How the values were obtained:
[1] = molecular target: T1, cephalosporinase (Pseudomonas aeruginosa, UniProt P24735); experiment: β-lactamase inhibitory activity, spectrophotometric rate assay with nitrocefin as substrate; type: biochemical, P. aeruginosa 46012
T1 construct: nitrocefin as substrate; purification not described
Excerpt: As already said, the oxyimino fragment i.e., =N--OR2 in the formula (I) in its `anti` orientation provides excellent synergy with a β-lactam antibiotic against class C β-lactamase (cephalosporinase) producing microorganisms, P. aeruginosa, in particular. Thus this invention includes only those compounds having the formula (I) in which the oxyimino group (=N--OR2) is specifically in the `anti` orientation as shown in (I). Furthermore, the inhibitory activity against the isolated β-lactamase (e.g., cephalosporinase from P. aeruginosa 46012) and the synergy with a β-lactam antibiotic is greatly influenced by the nature of the heterocyclic ring represented by R1 and the nature of the substituent in the oxime fragment represented by R2.
The inhibitory activities of present compounds (β-lactamase inhibitors) against cephalosporinase was measured by spectrophotometric rate assay using […] and using nitrocefin as a substrate (J. Antimicrob. Chemother., vol. 28, pp 775-776, 1991).

[2] = test system: β-lactamase; conditions: cited from earlier work
[3] = test system: E. cloacae 40054; experiment: MIC of ceftazidime, microbroth dilution; type: cell-based; conditions: Enterobacter cloacae, 40054, 18 h, read-out: MIC of ceftazidime alone
Description: (§1) After incubation in Mueller-Hinton Broth (Difco) at 37° C. for 18 h, the bacterial suspension was diluted and about 10^5 CFU/ml was applied to the drug-containing Mueller-Hinton Broth in each well of 96 well plate. The MICs were recorded after 18 h of incubation at 37° C. on the lowest combinations of drug that inhibited visible growth of bacteria.

[4] = test system: E. cloacae MNH-2; experiment: MIC of ceftazidime, microbroth dilution; type: cell-based; conditions: Enterobacter cloacae, MNH2, 18 h, read-out: MIC of ceftazidime alone
Description: as §1

[5] = test system: E. cloacae P99; experiment: microbe, parasite or virus in culture; type: cell-based; conditions: Enterobacter cloacae, P99, 18 h, read-out: MIC of ceftazidime alone
Description: as §1

[6] = test system: E. aerogenes 41006; experiment: MIC of ceftazidime, microbroth dilution; type: cell-based; conditions: Klebsiella aerogenes, 41006, 18 h, read-out: MIC of ceftazidime alone
Description: (§2) […]. After incubation in Mueller-Hinton Broth (Difco) at 37° C. for 18 h, the bacterial suspension was diluted and about 10^5 CFU/ml was applied to the drug-containing Mueller-Hinton Broth in each well of 96 well plate. The MICs were recorded after 18 h of incubation at 37° C. on the lowest combinations of drug that inhibited visible growth of bacteria.

[7] = test system: E. aerogenes S-95; experiment: MIC of ceftazidime, microbroth dilution; type: cell-based; conditions: Klebsiella aerogenes, S95, 18 h, read-out: MIC of ceftazidime alone
Description: as §2

[8] = test system: M. morganii 36014; experiment: MIC of ceftazidime, microbroth dilution; type: cell-based; conditions: Morganella morganii, 36014, 18 h, read-out: MIC of ceftazidime alone
Description: as §2

[9] = test system: M. morganii 36030; experiment: MIC of ceftazidime, microbroth dilution; type: cell-based; conditions: Morganella morganii, 36030, 18 h, read-out: MIC of ceftazidime alone
Description: as §2

[10] = test system: P. aeruginosa 46012 (R); experiment: MIC of ceftazidime, microbroth dilution; type: cell-based; conditions: Pseudomonas aeruginosa, 18 h, read-out: MIC of ceftazidime alone
Description: as §2

[11] = test system: P. aeruginosa 46017; experiment: MIC of ceftazidime, microbroth dilution; type: cell-based; conditions: Pseudomonas aeruginosa, 46017, 18 h, read-out: MIC of ceftazidime alone
Description: as §2

[12] = test system: P. aeruginosa 46220 DR-2-1; experiment: MIC of ceftazidime, microbroth dilution; type: cell-based; conditions: Pseudomonas aeruginosa, 46220DR21, 18 h, read-out: MIC of ceftazidime alone
Description: as §2

[13] = test system: P. aeruginosa AU-10; experiment: MIC of ceftazidime, microbroth dilution; type: cell-based; conditions: Pseudomonas aeruginosa, AU10, 18 h, read-out: MIC of ceftazidime alone
Description: as §2

[14] = test system: P. aeruginosa AU-1; experiment: MIC of ceftazidime, microbroth dilution; type: cell-based; conditions: Pseudomonas aeruginosa, AU1, 18 h, read-out: MIC of ceftazidime alone
Description: as §2

[15] = test system: P. aeruginosa AU-5; experiment: MIC of ceftazidime, microbroth dilution; type: cell-based; conditions: Pseudomonas aeruginosa, AU5, 18 h, read-out: MIC of ceftazidime alone
Description: as §2

[16] = test system: P. aeruginosa AU-7; experiment: MIC of ceftazidime, microbroth dilution; type: cell-based; conditions: Pseudomonas aeruginosa, AU7, 18 h, read-out: MIC of ceftazidime alone
Description: as §2

[17] = test system: P. aeruginosa AU-8; experiment: MIC of ceftazidime, microbroth dilution; type: cell-based; conditions: Pseudomonas aeruginosa, AU8, 18 h, read-out: MIC of ceftazidime alone
Description: as §2

[18] = test system: P. aeruginosa CT-122; experiment: MIC of ceftazidime, microbroth dilution; type: cell-based; conditions: Pseudomonas aeruginosa, CT122, 18 h, read-out: MIC of ceftazidime alone
Description: as §2

[19] = test system: P. aeruginosa CT-137; experiment: MIC of ceftazidime, microbroth dilution; type: cell-based; conditions: Pseudomonas aeruginosa, CT137, 18 h, read-out: MIC of ceftazidime alone
Description: as §2

[20] = test system: P. aeruginosa CT-144; experiment: MIC of ceftazidime, microbroth dilution; type: cell-based; conditions: Pseudomonas aeruginosa, CT144, 18 h, read-out: MIC of ceftazidime alone
Description: as §2

[21] = test system: P. aeruginosa L46004; experiment: MIC of ceftazidime, microbroth dilution; type: cell-based; conditions: Pseudomonas aeruginosa, L46004, 18 h, read-out: MIC of ceftazidime alone
Description: as §2

[22] = test system: P. aeruginosa M 1405; experiment: MIC of ceftazidime, microbroth dilution; type: cell-based; conditions: Pseudomonas aeruginosa, M1405, 18 h, read-out: MIC of ceftazidime alone
Description: as §2

[23] = test system: P. aeruginosa M 2297; experiment: MIC of ceftazidime, microbroth dilution; type: cell-based; conditions: Pseudomonas aeruginosa, M2297, 18 h, read-out: MIC of ceftazidime alone
Description: as §2

[24] = test system: P. aeruginosa PAO 303 carb-4; experiment: MIC of ceftazidime, microbroth dilution; type: cell-based; conditions: Pseudomonas aeruginosa, PAO303CARB4, 18 h, read-out: MIC of ceftazidime alone
Description: as §2

[25] = test system: P. aeruginosa sp 2439 Wt.; experiment: MIC of ceftazidime, microbroth dilution; type: cell-based; conditions: Pseudomonas aeruginosa, SP2439WT., 18 h, read-out: MIC of ceftazidime alone
Description: as §2

[26] = test system: P. fluorescens sp 5953; experiment: MIC of ceftazidime, microbroth dilution; type: cell-based; conditions: Pseudomonas fluorescens, SP5953, 18 h, read-out: MIC of ceftazidime alone
Description: as §2

[27] = test system: P. aeruginosa 46220 DR-2; experiment: MIC of ceftazidime, microbroth dilution; type: cell-based; conditions: Pseudomonas aeruginosa, 46220DR2, alone, 18 h, 37° C.
Description: as §1, with “The MICs of the antibiotics (ceftazidime) alone, the MICs of ceftazidime in combination with reference compounds particularly aztreonam (ref. compd. I) and the MICs of the β-lactamase inhibitors (10 μg/ml) of the present invention in combination with ceftazidime were determined with the same β-lactamase producing bacteria. After” for “After”

T1 sequence (P24735 27-397): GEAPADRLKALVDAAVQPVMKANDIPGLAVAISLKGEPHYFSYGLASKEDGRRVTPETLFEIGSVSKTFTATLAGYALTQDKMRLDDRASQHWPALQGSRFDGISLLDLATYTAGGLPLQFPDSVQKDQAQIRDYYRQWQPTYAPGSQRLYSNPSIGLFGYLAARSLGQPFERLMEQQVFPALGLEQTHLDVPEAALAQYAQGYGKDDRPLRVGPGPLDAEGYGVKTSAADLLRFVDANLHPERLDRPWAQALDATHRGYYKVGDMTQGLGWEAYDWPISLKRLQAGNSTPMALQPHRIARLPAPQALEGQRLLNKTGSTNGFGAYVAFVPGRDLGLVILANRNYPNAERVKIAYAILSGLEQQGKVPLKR

C[C@H]1[C@H](NC(=O)/C(=N/OCc2cc(=O)c(O)cn2O)c2cccs2)C(=O)N1S(=O)(=O)O [Compound 1, (3S)-trans-3-[(E)-2-(2-thienyl)-2-{(1,5-dihydroxy-4-pyridon-2-ylmethoxy)imino}acetamido]-4-methyl-2-oxoazetidine-1-sulfonic acid]
IC50 [1]: 60 nM

C[C@H]1[C@H](NC(=O)/C(=N/OCc2cc(=O)c(O)cn2O)c2cccs2)C(=O)N1S(=O)(=O)O [Compound 2]
IC50 [1]: 40 nM

C[C@H]1[C@H](NC(=O)/C(=N/OCc2cc(=O)c(O)cn2O)c2cccs2)C(=O)N1S(=O)(=O)O [Compound 3]
IC50 [1]: 10 nM

CC(O/N=C(/C(=O)N[C@@H]1C(=O)N(S(=O)(=O)O)[C@H]1C)c1cccs1)c1cc(=O)c(O)cn1O (some centres unmarked) [Compound 4]
IC50 [1]: 60 nM

C=CCC(O/N=C(/C(=O)N[C@@H]1C(=O)N(S(=O)(=O)O)[C@H]1C)c1cccs1)c1cc(=O)c(O)cn1O (some centres unmarked) [Compound 5]
IC50 [1]: 50 nM

C[C@H]1[C@H](NC(=O)/C(=N/OC(c2ccc(F)cc2)c2cc(=O)c(O)cn2O)c2cccs2)C(=O)N1S(=O)(=O)O (some centres unmarked) [Compound 6]
IC50 [1]: 100 nM

C[C@H]1[C@H](NC(=O)/C(=N/OCCSCc2cc(=O)c(O)cn2O)c2cccs2)C(=O)N1S(=O)(=O)O [Compound 7]
IC50 [1]: 60 nM

C[C@H]1[C@H](NC(=O)/C(=N/OCCNC(=O)/C(=N\OCc2cc(=O)c(O)cn2O)c2cccs2)c2cccs2)C(=O)N1S(=O)(=O)O [Compound 9]
IC50 [1]: 6 nM

C[C@H]1[C@H](NC(=O)/C(=N/OCCNC(=O)/C(=N/OCc2cc(=O)c(O)cn2O)c2cccs2)c2cccs2)C(=O)N1S(=O)(=O)O [Compound 10]
IC50 [1]: 1 nM

C/C(=N/OCc1cc(=O)c(O)cn1O)C(=O)NCCO/N=C(/C(=O)N[C@@H]1C(=O)N(S(=O)(=O)O)[C@H]1C)c1cccs1 [Compound 11]
IC50 [1]: 50 nM

C[C@H]1[C@H](NC(=O)/C(=N/OCCNC(=O)/C(=N\OCc2cc(=O)c(O)cn2O)c2csc(N)n2)c2cccs2)C(=O)N1S(=O)(=O)O [Compound 12]
IC50 [1]: 6 nM

C[C@H]1[C@H](NC(=O)/C(=N/OCCNC(=O)c2cc(=O)c(O)c[nH]2)c2cccs2)C(=O)N1S(=O)(=O)O [Compound 13]
IC50 [1]: 10 nM

C[C@H]1[C@H](NC(=O)/C(=N/OCc2cc(=O)c(O)c[nH]2)c2cccs2)C(=O)N1S(=O)(=O)O [Compound 14, (3S)-trans-3-[(E)-2-(2-thienyl)-2{(5-hydroxy-4-pyridon-2-ylmethoxy)imino}acetamido]-4-methyl-2-oxoazetidine-1-sulfonic acid, potassium salt]
IC50 [1]: 40 nM

C[C@H]1[C@H](NC(=O)/C(=N/OCc2cc(=O)c(O)cn2O)c2cccn2C)C(=O)N1S(=O)(=O)O [Compound 15]
IC50 [1]: 900 nM

C[C@H]1[C@H](NC(=O)/C(=N/OCC(N)COC(=O)/C(=N\OCc2cc(=O)c(O)cn2O)c2cccs2)c2cccs2)C(=O)N1S(=O)(=O)O (some centres unmarked) [Compound 16]
IC50 [1]: 4.5 nM

C[C@H]1[C@H](NC(=O)/C(=N\OC(C)(C)C(=O)O)c2csc(N)n2)C(=O)N1S(=O)(=O)O [Ref. compd. I, Aztreonam]
IC50 [1]: 130 nM
β-lactamase inhibitory properties [2]: possesses β-lactamase inhibitory properties

C[C@H]1[C@H](NC(=O)/C(=N\OCc2cc(=O)c(O)cn2O)c2cccs2)C(=O)N1S(=O)(=O)O [Ref. compd. III]
IC50 [1]: 40 nM

C[C@H]1[C@H](NC(=O)/C(=N/OC(C)(C)C(=O)O)c2csc(N)n2)C(=O)N1S(=O)(=O)O [Ref. compd. II]
IC50 [1]: 2000 nM

CC(C)(O/N=C(\C(=O)N[C@@H]1C(=O)N2C(C(=O)[O-])=C(C[n+]3ccccc3)CS[C@H]12)c1csc(N)n1)C(=O)O [ceftazidime]
MIC [3]: > 32 µg/mL
MIC [4]: > 32 µg/mL
MIC [5]: > 32 µg/mL
MIC [6]: > 32 µg/mL
MIC [7]: > 32 µg/mL
MIC [8]: 32 µg/mL
MIC [9]: > 32 µg/mL
MIC [10]: > 32 µg/mL
MIC [11]: > 32 µg/mL
MIC [12]: > 32 µg/mL
MIC [13]: 32 µg/mL
MIC [14]: > 32 µg/mL
MIC [15]: > 32 µg/mL
MIC [16]: > 32 µg/mL
MIC [17]: > 32 µg/mL
MIC [18]: 32 µg/mL
MIC [19]: 16 µg/mL
MIC [20]: > 32 µg/mL
MIC [21]: > 32 µg/mL
MIC [22]: > 32 µg/mL
MIC [23]: > 32 µg/mL
MIC [24]: 32 µg/mL
MIC [25]: > 32 µg/mL
MIC [26]: > 32 µg/mL
MIC [27]: 32 µg/mL
